Assay results taken from ChEMBL document CHEMBL1201862, “PubChem BioAssay data set” (2004).
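48-hour exposure; five concentrations; linearly interpolated endpoints. GI50 marks 50% less growth.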 Active and inactive are the calls of the source. Cut-off read from the data, not from the text of the source: active = GI50 up to about 1.1 µM and inactive = higher.

What was measured:
Assay in all cases: inhibition of tumour cell growth, NCI panel, 48 h
CAKI-1 = test system: CAKI-1
SNB-19 = test system: SNB-19
SW-620 = test system: SW-620
NCI-H23 = test system: NCI-H23
OVCAR-8 = test system: OVCAR-8
NCI-H226 = test system: NCI-H226
HL-60 = test system: HL-60
SF-268 = test system: SF-268
A549 = test system: A549
KM12 = test system: KM12
MOLT-4 = test system: MOLT-4
HOP-62 = test system: HOP-62
COLO 205 = test system: COLO 205
RPMI-8226 = test system: RPMI-8226
UACC-257 = test system: UACC-257
UACC-62 = test system: UACC-62
DU-145 = test system: DU-145
MCF7 = test system: MCF7
PC-3 = test system: PC-3

Structure (SMILES)	GI50 (CAKI-1)	GI50 (SNB-19)	GI50 (SW-620)	GI50 (NCI-H23)	GI50 (OVCAR-8)	GI50 (NCI-H226)	GI50 (HL-60)	GI50 (SF-268)	GI50 (A549)	GI50 (KM12)	GI50 (MOLT-4)	GI50 (HOP-62)	GI50 (COLO 205)	GI50 (RPMI-8226)	GI50 (UACC-257)	GI50 (UACC-62)	GI50 (DU-145)	GI50 (MCF7)	GI50 (PC-3)
c1coc(CNc2[nH]cnc3nncc2-3)c1	> 100 µM (inactive)	> 100 µM (inactive)	> 100 µM (inactive)	79.6 µM (inactive)	> 100 µM (inactive)	> 100 µM (inactive)	87.9 µM (inactive)	> 100 µM (inactive)	> 100 µM (inactive)	> 100 µM (inactive)	> 100 µM (inactive)	> 100 µM (inactive)	> 100 µM (inactive)	73.8 µM (inactive)	> 100 µM (inactive)	> 100 µM (inactive)			
CCCCCCCC(=O)OC(CBr)COC(=O)C(C)(C)C (stereo unspecified)	> 100 µM (inactive)	> 100 µM (inactive)	> 100 µM (inactive)	> 100 µM (inactive)	> 100 µM (inactive)	> 100 µM (inactive)	38 µM (inactive)	> 100 µM (inactive)	> 100 µM (inactive)	> 100 µM (inactive)	28.9 µM (inactive)	> 100 µM (inactive)	> 100 µM (inactive)	21.6 µM (inactive)	> 100 µM (inactive)	> 100 µM (inactive)			
CC(C)(C)OP(=O)(OC(C)(C)C)C(O)c1ccc(/C=C(\C#N)C(N)=O)cc1 (stereo unspecified)	> 100 µM (inactive)	> 100 µM (inactive)	> 100 µM (inactive)	> 100 µM (inactive)	> 100 µM (inactive)	> 100 µM (inactive)	38.9 µM (inactive)	> 100 µM (inactive)	> 100 µM (inactive)	> 100 µM (inactive)	> 100 µM (inactive)	> 100 µM (inactive)	> 100 µM (inactive)	> 100 µM (inactive)	> 100 µM (inactive)	> 100 µM (inactive)			
COc1ccc(C(=O)c2nc3ccccc3nc2N2CCN(c3ccccc3)CC2)cc1OC	> 100 µM (inactive)	> 100 µM (inactive)	> 100 µM (inactive)	> 100 µM (inactive)	> 100 µM (inactive)		> 100 µM (inactive)	> 100 µM (inactive)	> 100 µM (inactive)	> 100 µM (inactive)	> 100 µM (inactive)	> 100 µM (inactive)	> 100 µM (inactive)	> 100 µM (inactive)	> 100 µM (inactive)	> 100 µM (inactive)	> 100 µM (inactive)	39.1 µM (inactive)	> 100 µM (inactive)
N#C/C(=C\n1ccc(=O)[nH]c1=S)C(N)=O	> 100 µM (inactive)	> 100 µM (inactive)	> 100 µM (inactive)	> 100 µM (inactive)	> 100 µM (inactive)	> 100 µM (inactive)	> 100 µM (inactive)	> 100 µM (inactive)	> 100 µM (inactive)	> 100 µM (inactive)	> 100 µM (inactive)	> 100 µM (inactive)	> 100 µM (inactive)	> 100 µM (inactive)	> 100 µM (inactive)	> 100 µM (inactive)	> 100 µM (inactive)	> 100 µM (inactive)	> 100 µM (inactive)
C=C(Br)CN(C(C)=O)C1CCCCC1	> 100 µM (inactive)	> 100 µM (inactive)	> 100 µM (inactive)	> 100 µM (inactive)	> 100 µM (inactive)	> 100 µM (inactive)	> 100 µM (inactive)	> 100 µM (inactive)	> 100 µM (inactive)	> 100 µM (inactive)	> 100 µM (inactive)	> 100 µM (inactive)	> 100 µM (inactive)	> 100 µM (inactive)	> 100 µM (inactive)	> 100 µM (inactive)	> 100 µM (inactive)	> 100 µM (inactive)	> 100 µM (inactive)
N#C/C(=C\c1cccc(Br)c1)c1nc2ccccc2c(=O)[nH]1	> 100 µM (inactive)	43.7 µM (inactive)	> 100 µM (inactive)		> 100 µM (inactive)	> 100 µM (inactive)	> 100 µM (inactive)	> 100 µM (inactive)	> 100 µM (inactive)	> 100 µM (inactive)	> 100 µM (inactive)	21.9 µM (inactive)	> 100 µM (inactive)	> 100 µM (inactive)	> 100 µM (inactive)	76.2 µM (inactive)	> 100 µM (inactive)	> 100 µM (inactive)	> 100 µM (inactive)
O=S(=O)(O)c1ccc(/N=N/c2nc(C(F)(F)F)c(C(F)(F)F)[nH]2)cc1	29.2 µM (inactive)	29.9 µM (inactive)	41.5 µM (inactive)	24.2 µM (inactive)	29.4 µM (inactive)	31.5 µM (inactive)	32.1 µM (inactive)	56.5 µM (inactive)	61.8 µM (inactive)	> 100 µM (inactive)	24.2 µM (inactive)	36.6 µM (inactive)	74.8 µM (inactive)	> 100 µM (inactive)	69.5 µM (inactive)	28.4 µM (inactive)			
O=C(CSCC(=O)N/N=C\c1ccccc1F)N/N=C\c1ccccc1F	> 100 µM (inactive)	> 100 µM (inactive)	> 100 µM (inactive)	> 100 µM (inactive)	49.9 µM (inactive)	87.5 µM (inactive)	> 100 µM (inactive)	> 100 µM (inactive)	> 100 µM (inactive)	92.9 µM (inactive)	63.2 µM (inactive)		> 100 µM (inactive)	36.3 µM (inactive)	> 100 µM (inactive)	> 100 µM (inactive)	> 100 µM (inactive)	> 100 µM (inactive)	
O=C1C=C(Br)C(=O)C(Br)=C1	> 100 µM (inactive)	> 100 µM (inactive)	59.7 µM (inactive)	> 100 µM (inactive)	> 100 µM (inactive)	> 100 µM (inactive)	20.3 µM (inactive)	> 100 µM (inactive)	> 100 µM (inactive)	> 100 µM (inactive)	33.7 µM (inactive)	> 100 µM (inactive)	> 61.4 µM (inactive)	37.6 µM (inactive)	> 100 µM (inactive)	> 100 µM (inactive)			
COc1ccc(N2C(=O)C3c4[nH]c5ccccc5c4C4CCCCCCCCCCC4C3C2=O)cc1 (stereo unspecified)	35.4 µM (inactive)	8.81 µM (inactive)	4.58 µM (inactive)	9.38 µM (inactive)	3.39 µM (inactive)	6.93 µM (inactive)	18.9 µM (inactive)	5.16 µM (inactive)	4.84 µM (inactive)	7.03 µM (inactive)	15 µM (inactive)	20.3 µM (inactive)	14.7 µM (inactive)	18.7 µM (inactive)	31.6 µM (inactive)	18.5 µM (inactive)			
Cc1ccc(S(=O)(=O)NC(=O)C2S(=O)(=O)OCCOS2(=O)=O)cc1	> 100 µM (inactive)	> 100 µM (inactive)	> 100 µM (inactive)	> 100 µM (inactive)	> 100 µM (inactive)	1.24 µM (inactive)	> 100 µM (inactive)	> 100 µM (inactive)	> 100 µM (inactive)	> 100 µM (inactive)	> 10 µM (inactive)	> 100 µM (inactive)	> 100 µM (inactive)	> 100 µM (inactive)	> 100 µM (inactive)	> 100 µM (inactive)			
CCOC(=O)c1[nH]c(COC(C)=O)c2c1CCCCCCCCCC2	> 100 µM (inactive)	> 100 µM (inactive)	> 100 µM (inactive)	> 100 µM (inactive)	> 100 µM (inactive)	> 100 µM (inactive)	> 100 µM (inactive)	> 100 µM (inactive)	> 100 µM (inactive)	> 100 µM (inactive)	> 100 µM (inactive)	> 100 µM (inactive)	> 100 µM (inactive)	> 100 µM (inactive)	> 100 µM (inactive)	> 100 µM (inactive)			
N#Cc1nc(C2CCC2)oc1N	> 100 µM (inactive)	> 100 µM (inactive)	> 100 µM (inactive)	> 100 µM (inactive)	> 100 µM (inactive)	> 100 µM (inactive)	84.9 µM (inactive)	> 100 µM (inactive)	> 100 µM (inactive)	> 100 µM (inactive)	> 100 µM (inactive)	> 100 µM (inactive)	> 100 µM (inactive)	> 100 µM (inactive)	> 100 µM (inactive)	> 100 µM (inactive)	> 100 µM (inactive)	> 100 µM (inactive)	> 100 µM (inactive)
COC1CC(n2ccc(=O)[nH]c2=O)OC1CO (stereo unspecified)	> 100 µM (inactive)	> 100 µM (inactive)	> 100 µM (inactive)	> 100 µM (inactive)	> 100 µM (inactive)	> 100 µM (inactive)		> 100 µM (inactive)	> 100 µM (inactive)	> 100 µM (inactive)	> 100 µM (inactive)	> 100 µM (inactive)	> 100 µM (inactive)		> 100 µM (inactive)	> 100 µM (inactive)	> 100 µM (inactive)	< 0.01 µM (active)	> 100 µM (inactive)
COc1cc(/C=C\c2ccccc2)cc(OC)c1OC	4.36 µM (inactive)	6.08 µM (inactive)	2.84 µM (inactive)	4.13 µM (inactive)	3.69 µM (inactive)	4.2 µM (inactive)	1.75 µM (inactive)	6.55 µM (inactive)	5.28 µM (inactive)	4.04 µM (inactive)	3.7 µM (inactive)	2.9 µM (inactive)	3.08 µM (inactive)	4.18 µM (inactive)	5.14 µM (inactive)	2.49 µM (inactive)			
